Data from patent US8507439B2, “Neuroprotective and neurorestorative method and compositions” (priority 2005, dated 2013).
Residues, ends and D or L forms follow the SMILES beside them. No end group written: not given here. ξ: configuration not given here. *: point of attachment. Lip = lipoic acid (N-terminal), O=C(CCCC[C@@H]1CCSS1)*; Lipoyl(6ξ) = O=C(CCCCC1CCSS1)*

Legend:
N27 dopaminergic cells = assay: Survival of N27 dopaminergic cells in the presence of 300 μM MPP+ neurotoxic agent; type: cell-based, rat
[1] = test system: noradrenergic neurons in the striatum; assay: Survival of noradrenergic neurons in the MPTP mouse model for Parkinson's disease; type: in vivo
From the text: Tests were done in the MPTP mouse model for Parkinson's disease.

[2] = test system: SH-SY5Y human neuroblastoma cells; assay: Protection of SH-SY5Y neuroblastoma cells from Yankner peptide (b/A4), LDH content of remaining cells; type: cell-based; conditions: 20 μM Yankner peptide alone
Procedure: A characteristic constituent of Alzheimer's Disease (AD) is the formation of plaques from the 39-43 amino acid long peptide derived from amyloid protein (Selkoe, D. TINS (1993) 16: 403-409). This molecule (b/A4) can be toxic to mammalian nerve cells. […] Yankner et al. (Science (1990) 250: 279-282) has developed this property in a culture method as an AD assay procedure.
Differentiated cultures of SH-SY5Y Human neuroblastoma cells were grown to a stage where the cells formed a network of neurites. […] At day 3, after removal of the supernatant and the debris from dead cells by 3 washes with saline, the cells were then lysed and their LDH content was assayed for cell survival by measuring the LDH present in the remaining cells. The results were compared to LDH present in untreated controls, that were incubated for 3 days with no peptide additives (Table 7). The assay assumes that the LDH content of healthy cells remains constant and can be used as an index of living cells. The experiments using anoxia in our previous work were in agreement with this assumption.
This experiment was performed in the method described above for Example 6, Experiment 1, except that the cells were incubated for 4 days instead of 3 to enhance the degenerative effect of the Yankner peptide. […]

SHSY cells [3] = type: cell-based, human; conditions: 20 μM Yankner peptide alone
Procedure: Aliquots of 3×10^5 SHSY cells were plated in each well of a 24-well microtiter plate in 1 ml of medium containing no peptides (Control=Ctrl), 20 μM Yankner peptide (Yankner), or 20 μM Yankner peptide+75 μM of DQ (SEQ ID NO:2) (Yankner+BTX). Plates were incubated at 37° C. in a 5% CO2 incubator for 3 days, then each well was washed twice with 1×PBS to remove loosely bound cells. The number of remaining cells per ml was determined by microscopy. […] Error bars denote one standard deviation. […] BTX was DQ (SEQ ID NO:2) in this experiment.

SHSY cells [4] = assay: LDH levels in residual surviving SHSY cells after Yankner peptide; type: cell-based, human; conditions: Yankner peptide alone
Procedure: In a tissue culture model for Alzheimer's disease, treatment with the Yankner peptide (amyloid fragment) causes cell death within 3 days. […] By studying the time course of cell death in this culture model for Alzheimer's disease, it was determined that about 60% of the cells die within 24 hrs. When the neuroprotective/neurorestorative peptide of the invention was added to the cells at the 24 hour time point (e.g., 24 hours after the cells were contacted with the Yankner peptide), over 40% of the injured neurons that were destined to die on day 3 were rescued.
Aliquots of 3×10^5 SHSY cells were plated in each well of a 24-well microtiter plate in 1 ml of medium containing no peptides (control=Ctrl), 20 μM Yankner peptide (Yankner), 20 μM Yankner peptide+75 μM DQ peptide (SEQ ID NO:2) added at time of plating (Yankner+BTX Simultaneous), or 20 μM Yankner+75 μM BTX-639 added 24 hr post plating (Yankner+BTX 24 Hr Post). Plates were incubated at 37° C. in a 5% CO2 incubator for 3 days, then each well was washed twice with 1×PBS to remove loosely bound cells. Whole cell lysates were prepared from the remaining attached (viable) cells, and Lactate dehydrogenase (LDH) activity measured as described in methods. The results are illustrated in FIG. 2, in which each histobar represents the mean of 11 independent trials. Error bars denote one standard deviation. […]

[5] = test system: primary rat cortical cultures; assay: Oxygen-glucose deprivation (anoxia) of primary rat cortical cultures, LDH release into extracellular medium; type: cell-based
Procedure: Peptides of the invention have been examined for neuroprotective activity in primary rat cortical cultures. […] It rescued 90-100% of the neurons that were exposed to a 3 hour oxygen-glucose deprivation (OGD).
For the tests, primary mixed neuron-glia rat cortical cultures were grown to 80-95% confluence, as previously described (Shashoua, V. E. et al., Brain Res. (2004) 1024(1-2):34-43). Their neurons were grown over a layer of glia cells and formed a network of processes. Such cultures, after a 5× wash in oxygen-free (air displaced by argon) Hanks Balanced Salt Solution (HBSS) (Shashoua, V. E. et al., Brain Res. (2004) 1024(1-2):34-43) buffer, which contained no glucose, serum, and growth factors, were transferred for 3 hrs into the Form a Scientific Anaerobic Chamber (Thermo Forma, Marietta, Ohio) (Goldberg, M. P. and Choi, D. W. J Neurosci. (1993) 13(8):3510-3524) in an atmosphere of N2, CO2 and H2 (85%, 5%, and 10%). After exposure to oxygen-glucose deprivation (OGD) the neurons, retract their processes and generate vacuoles in their perikarya. […] Large increases (about 250%) in the release of lactic acid dehydrogenase (LDH, a marker of cell injury) into the extra-cellular medium occurred. For the test of glucose-oxygen deprivation on the release of lactic acid dehydrogenase as a function of time by primary rat cortical cultures, the LDH assay of extracellular fluid (1 ml aliquots) for cultures from cells were incubated for 24 hours under normoxia conditions and were compared with cells exposed up to 4 hours of anoxia in HBSS medium followed by normoxia medium for a total period of 24 hours. LDH was measured as absorbance at 490 nm, n=6 per time point (Shashoua, V. E. et al., Brain Res. (2004) 1024(1-2):34-43) (see Table 2). Assays and detection were performed according to manufacturer's instructions using a Promega Cyto Tox 96, a nonradioactive cytotoxicity assay kit (Promega, Madison, Wis.).
For these experiments there were n=6 per assay, and a 3 hour treatment of anoxia was followed by 21 hours of normoxia reperfusion. SEQ ID NO:1 was added at 1 hour post initiation of anoxia and was also present during the 21 hours of reperfusion. […] The results for SEQ ID NO:1 as well as the results for SEQ ID NOs:3 and 4, which are shown in Tables 3 and 4 give results of LDH assay that was done on supernatant of extracellular medium.

[6] = 300 μM MPP+ + 14 μM peptide, n = 8

For C[n+]1ccc(-c2ccccc2)cc1 [MPP+, 1-methyl-4-phenylpyridinium, reference compound], the “% Rescue after Treatment for 0 hours” value (N27 dopaminergic cells; 300 μM MPP+ alone) was 100 ± 2%, the “% Rescue after Treatment for 24 hours” value (N27 dopaminergic cells; 300 μM MPP+ alone) was 0 ± 3% and the “% Rescue after Treatment for 48 hours” value (N27 dopaminergic cells; 300 μM MPP+ alone) was 0 ± 4%.
Molecule CN1CC=C(c2ccccc2)CC1 [MPTP, 1-methyl-4-phenyl-1,2,3,6 tetrahydropyridine, reference compound] has a neurons that survive ([1]; 4 days following an IP injection 30 mg/Kg of MPTP, no peptide) of 12.5%.
For CC[C@H](C)[C@H](NC(=O)[C@H](C)NC(=O)CNC(=O)[C@H](CCCCN)NC(=O)[C@H](CC(N)=O)NC(=O)[C@H](CO)NC(=O)CN)C(=O)N[C@H](C(=O)NCC(=O)N[C@@H](CC(C)C)C(=O)N[C@@H](CCSC)C(=O)O)[C@@H](C)CC [Yankner peptide] (H-GSNKGAIIGLM-OH), the “OD 490 nm” value ([2]; 3 days) was 0.568 OD 490 nm, the “OD 490 nm” value ([2]; 4 days) was 0.127 OD 490 nm and the cell death (SHSY cells [3]) was 50%. The “cells that die within 24 hrs” value (SHSY cells [4]) was “about 60%”.
In the case of CC(C)[C@H](NC(=O)[C@H](CCC(=O)O)NC(=O)CCCCC1CCSS1)C(=O)N[C@@H](CC(=O)O)C(=O)N[C@@H](CC(=O)O)C(=O)N[C@@H](CC(=O)O)C(=O)N[C@@H](CCC(N)=O)C(=O)O (stereo partly drawn) [[Lip]-EVDDDQ] ({Lipoyl(6ξ)}-EVDDDQ-OH; C-terminus assumed), the “passage through the Blood-Brain Barrier (in words)” value ([1]; concluded from the in vivo effect) is reported as “can get through the Blood-Brain Barrier”.
EVDDDQ [SEQ ID NO: 1] was tested, and the “reversal of the effects of anoxia / neuroprotection from anoxia (in words)” value [5] was “active in reversing the effects of anoxia”, the “effects of anoxia, cell morphology and LDH release (in words)” value ([5]; 1 ng/ml up to 10 ng/ml in the media, even after the 3 hr OGD treatment, 21 hours normoxia reperfusion) was “all the effects of anoxia were reversed and cell morphology and LDH release returned to normal” and the “LDH (A 490 nm)” value ([5]; Table 3, anoxia + 1 ng/ml) was 0.33 ± .02 A 490 nm. The “LDH Released % of Normoxia” value ([5]; Table 3, anoxia + 1 ng/ml) was 100 % of Normoxia, the “LDH (A 490 nm)” value ([5]; Table 3, anoxia + 10 ng/ml) was 0.22 ± .03 A 490 nm and the “LDH Released % of Normoxia” value ([5]; Table 3, anoxia + 10 ng/ml) was 68 % of Normoxia. For the same molecule, the “LDH (A 490 nm)” value ([5]; Table 3, anoxia + 100 ng/ml) was 0.161 ± .04 A 490 nm, the “LDH Released % of Normoxia” value ([5]; Table 3, anoxia + 100 ng/ml) was 50 % of Normoxia and the “LDH release compared with normoxia controls (in words)” value ([5]; high doses) was “decreased LDH release to lower amounts than those present in normoxia controls”. For the same molecule, the neurons rescued ([5]; neurons exposed to a 3 hour oxygen-glucose deprivation (OGD)) was 90-100%, the “% Rescue after Treatment for 24 hours” value (N27 dopaminergic cells; 300 μM MPP+ + 14 μM (10 μg/ml) peptide, n = 8) was 82 ± 2% and the “% Rescue after Treatment for 24 hours” value (N27 dopaminergic cells; 300 μM MPP+ + 14 μM (10 μg/ml) peptide, n = 8, listed as SEQ ID NO:1) was 82%. The “% Rescue after Treatment for 0 hours” value (N27 dopaminergic cells; [6]) was 100 ± 2% and the “% Rescue after Treatment for 48 hours” value (N27 dopaminergic cells; [6]) was 56 ± 4%.
With QDDDVE the “reversal of the effects of anoxia / neuroprotection from anoxia (in words)” value [5] was “reverse effects of anoxia”.
For VFTPPS, the “reversal of the effects of anoxia / neuroprotection from anoxia (in words)” value [5] was “reverse effects of anoxia”.
In the case of [Ac]-QDDDVE (Ac-QDDDVE), the “LDH (A 490 nm)” value ([5]; Table 4, anoxia + 1 ng/ml) is reported as 0.33 ± 0.02 A 490 nm, the “LDH Released % of Normoxia” value ([5]; Table 4, anoxia + 1 ng/ml) is reported as 100 ± 6 % of Normoxia and the “LDH (A 490 nm)” value ([5]; Table 4, anoxia + 10 ng/ml) is reported as 0.22 ± 0.04 A 490 nm. The “LDH Released % of Normoxia” value ([5]; Table 4, anoxia + 10 ng/ml) was 67 ± 12 % of Normoxia, the “LDH (A 490 nm)” value ([5]; Table 4, anoxia + 100 ng/ml) was 0.16 ± 0.05 A 490 nm and the “LDH Released % of Normoxia” value ([5]; Table 4, anoxia + 100 ng/ml) was 48 ± 15 % of Normoxia. For the same molecule, the “% Rescue per Treatment time 0 hours” value (N27 dopaminergic cells; 42 μM peptide + 300 μM MPP+) was 100 ± 2%, the “% Rescue per Treatment time 24 hours” value (N27 dopaminergic cells; 42 μM peptide + 300 μM MPP+) was 42 ± 4% and the “% Rescue per Treatment time 48 hours” value (N27 dopaminergic cells; 42 μM peptide + 300 μM MPP+) was 27 ± 3%.
For “[Lip]-VFTPPS (Lip-VFTPPS) [VFTPPS conjugated to lipoic acid at the N-terminal amino acid]”, the “reversal of the effects of anoxia / neuroprotection from anoxia (in words)” value [5] was “promote neuroprotection from anoxia”, the “LDH (A 490 nm)” value ([5]; Table 4, anoxia + 10 ng/ml) was 0.56 ± 0.08 A 490 nm and the “LDH Released % of Normoxia” value ([5]; Table 4, anoxia + 10 ng/ml) was 169 ± 24 % of Normoxia. For the same molecule, the “LDH (A 490 nm)” value ([5]; Table 4, anoxia + 100 ng/ml) was 0.37 ± 0.04 A 490 nm and the “LDH Released % of Normoxia” value ([5]; Table 4, anoxia + 100 ng/ml) was 112 ± 12 % of Normoxia.
